# Test system: S. aureus PIII
# Assay: Broth microdilution MIC
# Assay type: cell-based
# Details: not given
# Experimental: (§1) Broth microdilution tests were performed according to NCCLS guidelines. Serial two-fold dilutions of each imidazolium salt (from an original working solution which had been 0.22 μm sterile filtered) in Mueller-Hinton Broth (MHB) (100 μl) were prepared in 96-well micro-titre plates over the range 0.0000625-1% w/v. The inoculum to be tested was prepared by adjusting the turbidity of an actively overnight growing broth culture in MHB to an optical density at 550 nm equivalent to 1×10^8 CFU/ml. The suspension was further diluted to provide a final inoculum density of 2×10^5 CFU/ml in MHB as verified by total viable count. The inoculum to be tested (100 μl, 2×10^5 CFU ml^−1) was added to each well of the microdilution trays which were incubated aerobically for 24 h at 37° C. Positive and negative growth controls were included in every assay (6 replicates). After determining the MICs, minimum bactericidal concentrations (MBCs) were determined by spreading 20 μl of suspension from wells showing no growth onto MHA plates, which were then incubated for 24 h and examined for 99.9% killing.
row,Structure (SMILES),MIC [µM]
1,CCCCCCCCCCCC[n+]1cccc2ccccc21.[Br-] [1-alkyl-3-quinolinium bromides 12],25.81

# Test system: S. epidermidis ATCC 35984
# Assay: Broth microdilution MIC/MBC
# Assay type: cell-based
# Details: S. epidermidis ATCC 35984, 99.9% killing
# Experimental: as §1
row,Structure (SMILES),MBC [µM]
1,CCCCCCCCCCCC[n+]1cccc2ccccc21.[Br-] [1-alkyl-3-quinolinium bromides 12],25.8

# Same assay, conditions: S. epidermidis ATCC 35984, 24 h at 37° C.
row,Structure (SMILES),MIC [µM]
1,CCCCCCCCCCCC[n+]1cccc2ccccc21.[Br-] [1-alkyl-3-quinolinium bromides 12],12.9

# Test system: P. mirabilis NCTC 12442
# Assay: Broth microdilution MIC/MBC
# Assay type: cell-based
# Details: P. mirabilis NCTC 12442, 99.9% killing
# Experimental: as §1
row,Structure (SMILES),MBC [µM]
1,CCCCCCCCCCCC[n+]1cccc2ccccc21.[Br-] [1-alkyl-3-quinolinium bromides 12],51.6

# Same assay, conditions: P. mirabilis NCTC 12442, 24 h at 37° C.
row,Structure (SMILES),MIC [µM]
1,CCCCCCCCCCCC[n+]1cccc2ccccc21.[Br-] [1-alkyl-3-quinolinium bromides 12],25.81

# Test system: E. coli NCTC 8196
# Assay: Broth microdilution MIC/MBC
# Assay type: cell-based
# Details: E. coli NCTC 8196, 99.9% killing
# Experimental: as §1
row,Structure (SMILES),MBC [µM]
1,CCCCCCCCCCCC[n+]1cccc2ccccc21.[Br-] [1-alkyl-3-quinolinium bromides 12],38.7

# Same assay, conditions: E. coli NCTC 8196, 24 h at 37° C.
row,Structure (SMILES),MIC [µM]
1,CCCCCCCCCCCC[n+]1cccc2ccccc21.[Br-] [1-alkyl-3-quinolinium bromides 12],25.81

# Test system: S. aureus ATCC 29213
# Assay: Broth microdilution MIC/MBC
# Assay type: cell-based
# Details: S. aureus ATCC 29213, 99.9% killing
# Experimental: as §1
row,Structure (SMILES),MBC [µM]
1,CCCCCCCCCCCC[n+]1cccc2ccccc21.[Br-] [1-alkyl-3-quinolinium bromides 12],51.6

# Same assay, conditions: S. aureus ATCC 29213, 24 h at 37° C.
row,Structure (SMILES),MIC [µM]
1,CCCCCCCCCCCC[n+]1cccc2ccccc21.[Br-] [1-alkyl-3-quinolinium bromides 12],25.81

# Test system: P. aeruginosa PA01
# Assay: Broth microdilution MIC/MBC
# Assay type: cell-based
# Details: P. aeruginosa PA01, 99.9% killing
# Experimental: as §1
row,Structure (SMILES),MBC [µM]
1,CCCCCCCCCCCC[n+]1cccc2ccccc21.[Br-] [1-alkyl-3-quinolinium bromides 12],90.33

# Same assay, conditions: P. aeruginosa PA01, 24 h at 37° C.; read-out: MIC
row,Structure (SMILES),MIC [µM]
1,CCCCCCCCCCCC[n+]1cccc2ccccc21.[Br-] [1-alkyl-3-quinolinium bromides 12],51.64

# Test system: C. tropicalis NCTC 7393
# Assay: Broth microdilution MIC/MBC
# Assay type: cell-based
# Details: C. tropicalis NCTC 7393, 99.9% killing
# Experimental: as §1
row,Structure (SMILES),MBC [µM]
1,CCCCCCCCCCCC[n+]1cccc2ccccc21.[Br-] [1-alkyl-3-quinolinium bromides 12],25.8

# Same assay, conditions: C. tropicalis NCTC 7393, 24 h at 37° C.
row,Structure (SMILES),MIC [µM]
1,CCCCCCCCCCCC[n+]1cccc2ccccc21.[Br-] [1-alkyl-3-quinolinium bromides 12],12.9

# Test system: S. epidermidis ATCC 12228
# Assay: Broth microdilution MIC/MBC
# Assay type: cell-based
# Details: S. epidermidis ATCC 12228, 99.9% killing
# Experimental: as §1
row,Structure (SMILES),MBC [µM]
1,CCCCCCCCCCCC[n+]1cccc2ccccc21.[Br-] [1-alkyl-3-quinolinium bromides 12],25.8

# Same assay, conditions: S. epidermidis ATCC 12228, 24 h at 37° C.
row,Structure (SMILES),MIC [µM]
1,CCCCCCCCCCCC[n+]1cccc2ccccc21.[Br-] [1-alkyl-3-quinolinium bromides 12],12.9

# Test system: E-MRSA 15
# Assay: Broth microdilution MIC/MBC
# Assay type: cell-based
# Details: E-MRSA 15, 99.9% killing
# Experimental: as §1
row,Structure (SMILES),MBC [µM]
1,CCCCCCCCCCCC[n+]1cccc2ccccc21.[Br-] [1-alkyl-3-quinolinium bromides 12],25.8

# Same assay, conditions: E-MRSA 15, 24 h at 37° C.
row,Structure (SMILES),MIC [µM]
1,CCCCCCCCCCCC[n+]1cccc2ccccc21.[Br-] [1-alkyl-3-quinolinium bromides 12],25.8

# Test system: B. cereus
# Assay: Broth microdilution MIC/MBC
# Assay type: cell-based
# Details: 99.9% killing
# Experimental: as §1
row,Structure (SMILES),MBC [µM]
1,CCCCCCCCCCCC[n+]1cccc2ccccc21.[Br-] [1-alkyl-3-quinolinium bromides 12],77.4

# Same assay, conditions: 24 h at 37° C.
row,Structure (SMILES),MIC [µM]
1,CCCCCCCCCCCC[n+]1cccc2ccccc21.[Br-] [1-alkyl-3-quinolinium bromides 12],51.63

# Test system: K. aerogenes NCTC 7427
# Assay: Broth microdilution MIC/MBC
# Assay type: cell-based
# Details: K. aerogenes NCTC 7427, 99.9% killing
# Experimental: as §1
row,Structure (SMILES),MBC [µM]
1,CCCCCCCCCCCC[n+]1cccc2ccccc21.[Br-] [1-alkyl-3-quinolinium bromides 12],38.7

# Same assay, conditions: K. aerogenes NCTC 7427, 24 h at 37° C.
row,Structure (SMILES),MIC [µM]
1,CCCCCCCCCCCC[n+]1cccc2ccccc21.[Br-] [1-alkyl-3-quinolinium bromides 12],12.9

# Test system: S. epidermidis ATCC 35984
# Assay: Biofilm assay (Calgary Biofilm Device), MBEC
# Assay type: cell-based
# Details: S. epidermidis ATCC 35984 24 h biofilm, 24 h challenge
# Experimental: (§2) Biofilms of each test organism were grown in the Calgary Biofilm Device (commercially available as the MBEC Assay™ for Physiology & Genetics, Innovotech Inc., Edmonton, Alberta, Canada). The device, a micro-titre plated based assay, consists of two parts; a microtitre plate containing the inoculated test medium and a polystyrene lid with 96 identical pegs on which the microbial biofilm forms under gyrorotary incubation. The biofilm assay was conducted according to the MBEC™ assay protocol as supplied by the manufacturer, with slight modifications. Inocula of each test organism were prepared in MHB as described above and adjusted to provide a final inoculum density of ˜10^7 CFU ml^−1 (as confirmed by viable count). 150 μl of the inoculated media was transferred to each well of the 96-well microtitre plate and the assay plate lid, bearing 96 pegs was placed into the microtitre plate. The MBEC assay plates were placed in a gyrorotary incubator (37° C., 95% relative humidity) for 24 h to permit growth and comparison of 24 h biofilms of each test strain. Positive and negative growth controls were included in each plate (6 replicates). Initial and 24 h planktonic viable counts were measured, as were 24 h biofilm counts, expressed as CFU peg^−1, according to manufacturers instructions. After 24 h, the peg lid of the MBEC assay plate was gently rinsed three times. After rinsing, the peg lid of the MBEC assay was transferred to a ‘challenge’ plate. Serial dilutions of each imidazolium salt were prepared in 200 μl of MHB containing various concentrations of IL in each well. Positive growth control and sterility control were included in each assay plate. […] Biofilms were dislodged into recovery media by sonication for 5 minutes and the peg lid discarded. The recovery plate is incubated overnight and visually checked after 24 h for turbidity. In addition, optical density measurements for each plate were recorded at 550 nm. Clear wells were taken as evidence of biofilm eradication and the MBEC value was assigned as the lowest concentration at which no growth was observed after 24 h incubation. Plates were incubated for a further 24 h to confirm biofilm eradication concentrations.
row,Structure (SMILES),MBEC [µM]
1,CCCCCCCCCCCC[n+]1cccc2ccccc21.[Br-] [1-alkyl-3-quinolinium bromides 12],413.97

# Test system: P. mirabilis NCTC 12442
# Assay: Biofilm assay (Calgary Biofilm Device), MBEC
# Assay type: cell-based
# Details: P. mirabilis NCTC 12442 24 h biofilm, 24 h challenge
# Experimental: as §2
row,Structure (SMILES),MBEC [µM]
1,CCCCCCCCCCCC[n+]1cccc2ccccc21.[Br-] [1-alkyl-3-quinolinium bromides 12],1655.88

# Test system: S. aureus PIII
# Assay: Biofilm assay (Calgary Biofilm Device), MBEC
# Assay type: cell-based
# Details: S. aureus PIII 24 h biofilm, 24 h challenge
# Experimental: as §2
row,Structure (SMILES),MBEC [µM]
1,CCCCCCCCCCCC[n+]1cccc2ccccc21.[Br-] [1-alkyl-3-quinolinium bromides 12],619.5

# Test system: E. coli NCTC 8196
# Assay: Biofilm assay (Calgary Biofilm Device), MBEC
# Assay type: cell-based
# Details: E. coli NCTC 8196 24 h biofilm, 24 h challenge
# Experimental: as §2
row,Structure (SMILES),MBEC [µM]
1,CCCCCCCCCCCC[n+]1cccc2ccccc21.[Br-] [1-alkyl-3-quinolinium bromides 12],827.94

# Test system: P. aeruginosa PA01
# Assay: Biofilm assay (Calgary Biofilm Device), MBEC
# Assay type: cell-based
# Details: P. aeruginosa PA01 24 h biofilm, 24 h challenge
# Experimental: as §2
row,Structure (SMILES),MBEC [µM]
1,CCCCCCCCCCCC[n+]1cccc2ccccc21.[Br-] [1-alkyl-3-quinolinium bromides 12],413.97

# Test system: C. tropicalis NCTC 7393
# Assay: Biofilm assay (Calgary Biofilm Device), MBEC
# Assay type: cell-based
# Details: C. tropicalis NCTC 7393 24 h biofilm, 24 h challenge
# Experimental: as §2
row,Structure (SMILES),MBEC [µM]
1,CCCCCCCCCCCC[n+]1cccc2ccccc21.[Br-] [1-alkyl-3-quinolinium bromides 12],413.87

# Test system: E-MRSA 15
# Assay: Biofilm assay (Calgary Biofilm Device), MBEC
# Assay type: cell-based
# Details: E-MRSA 15 24 h biofilm, 24 h challenge
# Experimental: as §2
row,Structure (SMILES),MBEC [µM]
1,CCCCCCCCCCCC[n+]1cccc2ccccc21.[Br-] [1-alkyl-3-quinolinium bromides 12],827.94

# Test system: B. cereus
# Assay: Biofilm assay (Calgary Biofilm Device), MBEC
# Assay type: cell-based
# Details: B. cereus 24 h biofilm, 24 h challenge
# Experimental: as §2
row,Structure (SMILES),MBEC [µM]
1,CCCCCCCCCCCC[n+]1cccc2ccccc21.[Br-] [1-alkyl-3-quinolinium bromides 12],774.25

# Test system: K. aerogenes NCTC 7427
# Assay: Biofilm assay (Calgary Biofilm Device), MBEC
# Assay type: cell-based
# Details: K. aerogenes NCTC 7427 24 h biofilm, 24 h challenge
# Experimental: as §2
row,Structure (SMILES),MBEC [µM]
1,CCCCCCCCCCCC[n+]1cccc2ccccc21.[Br-] [1-alkyl-3-quinolinium bromides 12],981.25

# Reference: patent publication US20110144079A1, “ANTIMICROBIAL SYSTEM” (priority 2008, published 2011)
